In ChEMBL document CHEMBL1145743, “High-throughput synthesis and optimization of thrombin inhibitors via urazole alpha-addition and Michael addition” (Bioorg Med Chem Lett, 2003):
Active and inactive are the calls of the source. The rule behind the calls is not given here.

The compounds below were run against T1, Prothrombin (Homo sapiens, UniProt P00734) (assay: Inhibitory activity against thrombin at concentration 400 nM; NA: Not active). Details: not given.

Row | SMILES | inhibition
1 | CCCSCC(C(=O)O)n1c(=O)n2n(c1=O)C(C(=O)NC[C@H]1CC[C@H](N)CC1)C=CC2 (some centres not stated) | inactive

The compounds below were run against T1, Prothrombin (assay: Inhibitory activity against human thrombin). Details: not given.

Row | SMILES | Ki [nM]
2 | COC(=O)C(CSC1CCCCC1)n1c(=O)n2n(c1=O)C(C(=O)NC[C@H]1CC[C@H](N)CC1)C=CC2 (some centres not stated) | 91
3 | Cc1nc(N)ccc1CNC(=O)C1C=CCn2c(=O)n(C(CSC3CCCCC3)C(=O)O)c(=O)n21 (configuration not stated) | 11
4 | Cc1nc(N)ccc1CNC(=O)C1C=CCn2c(=O)n(C(CSc3ccc(Cl)c(Cl)c3)C(=O)OC3CCCCC3)c(=O)n21 (configuration not stated) | 87
5 | COC(=O)C(CSc1ccc(OC)cc1)n1c(=O)n2n(c1=O)C(C(=O)NCc1ccc(N)nc1C)C=CC2 (configuration not stated) | 80
6 | N[C@H]1CC[C@H](CNC(=O)C2C=CCn3c(=O)n(C(CSC4CCCCC4)C(=O)O)c(=O)n32)CC1 (some centres not stated) | 53
7 | COC(=O)C(CSc1ccc(Br)cc1)n1c(=O)n2n(c1=O)C(C(=O)NC[C@H]1CC[C@H](N)CC1)C=CC2 (some centres not stated) | 0.023
8 | Cc1nc(N)ccc1CNC(=O)C1C=CCn2c(=O)n(C(CSc3ccc(Cl)cc3)C(=O)O)c(=O)n21 (configuration not stated) | 32
9 | COC(=O)C(CSC1CCCCC1)n1c(=O)n2n(c1=O)C(C(=O)NCc1ccc(N)nc1C)C=CC2 (configuration not stated) | 28
10 | CCOC(=O)C(CSc1ccc(Br)cc1)n1c(=O)n2n(c1=O)C(C(=O)NCc1ccc(N)nc1C)C=CC2 (configuration not stated) | 0.27
11 | COC(=O)C(CSc1ccc(Cl)cc1)n1c(=O)n2n(c1=O)C(C(=O)NCc1ccc(N)nc1C)C=CC2 (configuration not stated) | 82
12 | Cc1nc(N)ccc1CNC(=O)C1C=CCn2c(=O)n(C(CSc3ccc(Cl)c(Cl)c3)C(=O)O)c(=O)n21 (configuration not stated) | 22
13 | COC(=O)C(CSc1ccccc1)n1c(=O)n2n(c1=O)C(C(=O)NC[C@H]1CC[C@H](N)CC1)C=CC2 (some centres not stated) | 2.9
14 | Cc1nc(N)ccc1CNC(=O)C1C=CCn2c(=O)n(C(CSc3ccccc3)C(=O)O)c(=O)n21 (configuration not stated) | 15
15 | COC(=O)C(CSc1ccc(Br)cc1)n1c(=O)n2n(c1=O)C(C(=O)NCc1ccc(N)nc1C)C=CC2 (configuration not stated) | 83
16 | Cc1nc(N)ccc1CNC(=O)C1C=CCn2c(=O)n(C(CSc3ccc(Cl)c(Cl)c3)C(=O)N3CCCC3)c(=O)n21 (configuration not stated) | 18
17 | Cc1nc(N)ccc1CNC(=O)C1C=CCn2c(=O)n(C(CSc3ccc(Cl)cc3)C(=O)OC3CCCCC3)c(=O)n21 (configuration not stated) | 0.057
18 | Cc1nc(N)ccc1CNC(=O)C1C=CCn2c(=O)n(C(CSc3ccc(Br)cc3)C(=O)N3CCOCC3)c(=O)n21 (configuration not stated) | 39
19 | Cc1nc(N)ccc1CNC(=O)C1C=CCn2c(=O)n(C(CSc3ccc(Cl)cc3)C(=O)N3CCOCC3)c(=O)n21 (configuration not stated) | 7.7

Row | SMILES | Ki [nM]
20 | COc1ccc(SCC(C(=O)O)n2c(=O)n3n(c2=O)C(C(=O)NC[C@H]2CC[C@H](N)CC2)C=CC3)cc1 (some centres not stated) | 4.7
21 | COC(=O)C(CSc1ccc(Cl)c(Cl)c1)n1c(=O)n2n(c1=O)C(C(=O)NC[C@H]1CC[C@H](N)CC1)C=CC2 (some centres not stated) | 0.24
22 | Cc1nc(N)ccc1CNC(=O)C1C=CCn2c(=O)n(C(CSc3ccc(Cl)cc3)C(=O)N3CCCC3)c(=O)n21 (configuration not stated) | 24
23 | N[C@H]1CC[C@H](CNC(=O)C2C=CCn3c(=O)n(C(CSc4ccc(Cl)cc4)C(=O)O)c(=O)n32)CC1 (some centres not stated) | 5.7
24 | CCOC(=O)C(CSc1ccc(Cl)c(Cl)c1)n1c(=O)n2n(c1=O)C(C(=O)NCc1ccc(N)nc1C)C=CC2 (configuration not stated) | 28
25 | Cc1nc(N)ccc1CNC(=O)C1C=CCn2c(=O)n(C(CSc3ccc(Cl)cc3)C(=O)OC(C)C)c(=O)n21 (configuration not stated) | 1.5
26 | COC(=O)C(CSc1ccc(Cl)cc1)n1c(=O)n2n(c1=O)C(C(=O)NC[C@H]1CC[C@H](N)CC1)C=CC2 (some centres not stated) | 0.32
27 | COC(=O)C(CSc1ccc(OC)cc1)n1c(=O)n2n(c1=O)C(C(=O)NC[C@H]1CC[C@H](N)CC1)C=CC2 (some centres not stated) | 0.75
28 | COC(=O)C(CSc1ccc(Cl)c(Cl)c1)n1c(=O)n2n(c1=O)C(C(=O)NCc1ccc(N)nc1C)C=CC2 (configuration not stated) | 78
29 | Cc1nc(N)ccc1CNC(=O)C1C=CCn2c(=O)n(C(CSc3ccc(Cl)c(Cl)c3)C(=O)OC(C)C)c(=O)n21 (configuration not stated) | 53
30 | Cc1nc(N)ccc1CNC(=O)C1C=CCn2c(=O)n(C(CSc3ccc(Br)cc3)C(=O)OC3CCCCC3)c(=O)n21 (configuration not stated) | 1.5
31 | N[C@H]1CC[C@H](CNC(=O)C2C=CCn3c(=O)n(C(CSc4ccc(Br)cc4)C(=O)O)c(=O)n32)CC1 (some centres not stated) | 2.6
32 | COc1ccc(SCC(C(=O)O)n2c(=O)n3n(c2=O)C(C(=O)NCc2ccc(N)nc2C)C=CC3)cc1 (configuration not stated) | 29
33 | Cc1nc(N)ccc1CNC(=O)C1C=CCn2c(=O)n(C(CSc3ccc(Br)cc3)C(=O)N3CCCC3)c(=O)n21 (configuration not stated) | 30
34 | N[C@H]1CC[C@H](CNC(=O)C2C=CCn3c(=O)n(C(CSc4ccc(Cl)c(Cl)c4)C(=O)O)c(=O)n32)CC1 (some centres not stated) | 13
35 | COC(=O)C(CSc1ccccc1)n1c(=O)n2n(c1=O)C(C(=O)NCc1ccc(N)nc1C)C=CC2 (configuration not stated) | 32
36 | N[C@H]1CC[C@H](CNC(=O)C2C=CCn3c(=O)n(C(CSc4ccccc4)C(=O)O)c(=O)n32)CC1 (some centres not stated) | 36
37 | Cc1nc(N)ccc1CNC(=O)C1C=CCn2c(=O)n(C(CSc3ccc(Br)cc3)C(=O)OC(C)C)c(=O)n21 (configuration not stated) | 0.087

What follows are compounds tested against T1, Prothrombin (assay: Inhibitory activity against thrombin; NA=not active). Details: not given.

Row | SMILES | Ki
38 | Cc1nc(N)ccc1CNC(=O)C1C=CCn2c(=O)n(C(CSc3ccc(Cl)c(Cl)c3)C(=O)N3CCOCC3)c(=O)n21 (configuration not stated) | Not Active
39 | CCOC(=O)C(CSc1ccc(Cl)cc1)n1c(=O)n2n(c1=O)C(C(=O)NCc1ccc(N)nc1C)C=CC2 (configuration not stated) | Not Active
40 | Cc1nc(N)ccc1CNC(=O)C1C=CCn2c(=O)n(C(CSc3ccc(Br)cc3)C(=O)O)c(=O)n21 (configuration not stated) | Not Active

The compounds below were run against T1, Prothrombin. Details: at 400 nM.
Description: Inhibitory activity against thrombin at 400 nM; NA=not active

Row | SMILES | inhibition
41 | N[C@H]1CC[C@H](CNC(=O)C2C=CCn3c(=O)n(C(CNC4CCCCC4)C(=O)O)c(=O)n32)CC1 (some centres not stated) | inactive
42 | COC(=O)C(CSc1ccc(C)cc1C)n1c(=O)n2n(c1=O)C(C(=O)NCc1ccc(N)nc1C)C=CC2 (configuration not stated) | inactive
43 | COC(=O)C(CSc1ccc(Br)cc1)n1c(=O)n2n(c1=O)C(C(=O)NC[C@H]1CC[C@H](N)CC1)C=CC2 (some centres not stated) | inactive
44 | COC(=O)C(CNCC(C)C)n1c(=O)n2n(c1=O)C(C(=O)NCc1ccc(N)nc1C)C=CC2 (configuration not stated) | inactive
45 | CCCSCC(C(=O)O)n1c(=O)n2n(c1=O)C(C(=O)NCc1ccc(N)nc1C)C=CC2 (configuration not stated) | inactive
46 | Cc1nc(N)ccc1CNC(=O)C1C=CCn2c(=O)n(C(CNCc3ccccc3)C(=O)O)c(=O)n21 (configuration not stated) | inactive
47 | Cc1nc(N)ccc1CNC(=O)C1C=CCn2c(=O)n(C(CSc3ccc(Br)cc3)C(=O)O)c(=O)n21 (configuration not stated) | inactive
48 | COC(=O)C(CNC1CCCCC1)n1c(=O)n2n(c1=O)C(C(=O)NCc1ccc(N)nc1C)C=CC2 (configuration not stated) | inactive
49 | CC(=O)Nc1ccc(SCC(C(=O)O)n2c(=O)n3n(c2=O)C(C(=O)NC[C@H]2CC[C@H](N)CC2)C=CC3)cc1 (some centres not stated) | inactive
50 | Cc1nc(N)ccc1CNC(=O)C1C=CCn2c(=O)n(C(CNCC(C)C)C(=O)O)c(=O)n21 (configuration not stated) | inactive
51 | Cc1nc(N)ccc1CNC(=O)C1C=CCn2c(=O)n(C(CSCC(C)C)C(=O)O)c(=O)n21 (configuration not stated) | inactive
52 | COC(=O)C(CSCC(O)CO)n1c(=O)n2n(c1=O)C(C(=O)NCc1ccc(N)nc1C)C=CC2 (configuration not stated) | inactive
